Data: BindingDB's records for doi:10.1016/s0960-894x(02)00639-x (Monash University (Parkville Campus), 2002)

Assays:
[1] = Equilibrium dissociation constant for [3H]DPCPX binding to Adenosine A1 receptor from DDT1 MF2 cell membranes
[2] = Inhibitory concentration against [3H]DPCPX binding to Adenosine A1 receptor from DDT1 MF2 cells
[3] = Equilibrium dissociation constant for [3H]DPCPX binding to Adenosine A1 receptor from DDT1 MF2 cell membranes; remark: listed apart in the source

Compound `CCCn1c(=O)c2[nH]c(C3CC4CCC3C4)nc2n(CCCCC(=O)c2ccc(S(=O)(=O)F)cc2)c1=O` (stereo not given) [4-[5-(8-Bicyclo[2.2.1]hept-2-yl-2,6-dioxo-1-propyl-1,2,6,7-tetrahydro-purin-3-yl)-pentanoyl]-benzenesulfonyl fluoride] has a Kd [1] of 0.53 nM and an IC50 [2] of 3.9 nM.
`CCCn1c(=O)c2[nH]c(C3CCCCC3)nc2n(CCCCC(=O)c2ccc(S(=O)(=O)F)cc2)c1=O` [4-[5-(8-Cyclohexyl-2,6-dioxo-1-propyl-1,2,6,7-tetrahydro-purin-3-yl)-pentanoyl]-benzenesulfonyl fluoride] gave an IC50 [2] of 17 nM.
In the case of `CCCn1c(=O)c2[nH]c(C3CCCC3)nc2n(CCCCC(=O)c2ccc(S(=O)(=O)F)cc2)c1=O` [4-[5-(8-Cyclopentyl-2,6-dioxo-1-propyl-1,2,6,7-tetrahydro-purin-3-yl)-pentanoyl]-benzenesulfonyl fluoride], the Kd [1] is reported as 0.53 nM and the IC50 [3] is reported as 8.7 nM.
